Results on two compounds are retold here after BindingDB's records for doi:10.1002/cbic.201700052 (University of Illinois, 2017).

Common to all, as to test: In Silico Screening
The target in assay [1] is T1, 4-hydroxy-3-methylbut-2-enyl diphosphate reductase (Aquifex aeolicus (strain VF5), UniProt O67625).
T1 sequence (O67625 whole entry): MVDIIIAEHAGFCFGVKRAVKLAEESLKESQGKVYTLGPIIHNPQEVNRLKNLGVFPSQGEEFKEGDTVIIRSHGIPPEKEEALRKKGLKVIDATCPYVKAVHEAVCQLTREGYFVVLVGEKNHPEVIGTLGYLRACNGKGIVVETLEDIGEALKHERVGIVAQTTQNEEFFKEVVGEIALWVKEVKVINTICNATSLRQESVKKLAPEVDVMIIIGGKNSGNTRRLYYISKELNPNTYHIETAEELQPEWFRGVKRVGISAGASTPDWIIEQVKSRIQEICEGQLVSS
From the text: (§1) In order to find new inhibitors, we carried out in silico screening of AaIspH and EcIspH using ZINC and National Cancer Institute (NCI) libraries and Glide docking, essentially as previously described.[Lindert et al., Chem. Biol. Drug Des., 81:742-748]

Assay [2] addresses T2, 4-hydroxy-3-methylbut-2-enyl diphosphate reductase (Escherichia coli (strain K12), UniProt P62623).
T2 sequence (P62623 whole entry): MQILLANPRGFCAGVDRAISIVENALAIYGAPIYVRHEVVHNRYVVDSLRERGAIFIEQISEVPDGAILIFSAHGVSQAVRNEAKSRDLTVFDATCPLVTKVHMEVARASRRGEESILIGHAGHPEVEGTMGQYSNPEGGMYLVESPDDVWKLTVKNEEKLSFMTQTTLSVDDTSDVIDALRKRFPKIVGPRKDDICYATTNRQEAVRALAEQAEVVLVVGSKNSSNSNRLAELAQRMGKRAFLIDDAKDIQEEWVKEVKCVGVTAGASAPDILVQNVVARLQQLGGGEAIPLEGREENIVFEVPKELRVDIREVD
Description: as §1

Assay [3] deals with T3, 4-hydroxy-3-methylbut-2-enyl diphosphate reductase (Pseudomonas aeruginosa (strain ATCC 15692 / PAO1 / 1C / PRS 101 / LMG12228), UniProt Q9HVM7).
T3 sequence (Q9HVM7 whole entry): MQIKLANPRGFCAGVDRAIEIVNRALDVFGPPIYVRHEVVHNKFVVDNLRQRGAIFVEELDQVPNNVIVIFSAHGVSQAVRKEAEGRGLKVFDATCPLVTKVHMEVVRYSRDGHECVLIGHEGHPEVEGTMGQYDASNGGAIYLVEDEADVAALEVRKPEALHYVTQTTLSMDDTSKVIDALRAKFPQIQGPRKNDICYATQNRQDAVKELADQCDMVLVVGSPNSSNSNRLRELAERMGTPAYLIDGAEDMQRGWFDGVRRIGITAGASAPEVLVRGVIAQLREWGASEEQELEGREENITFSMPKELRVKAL
Description: as §1

As for `Nc1ccc2c(c1)CC1(C(=O)NC(=O)NC1=O)C1CN(Cc3ccccc3)CCN21` (stereo not drawn) [8-Amino-3-benzyl-2,3,4,4 a-tetrahydro-1,2'H,6H-spiro[pyrazino[1,2-a]quinoline-5,5'-pyrimidine]-2',4',6'(1'H,3'H)-trione], the Ki in assay [1] was 0.7 µM; in assay [2], 3 µM.
For `CCN1CCN2c3ccc(N)cc3CC3(C(=O)NC(=O)NC3=O)C2C1` (stereo not drawn) [IspH inhibitor, 8], in assay [3], the inhibitory constant (Ki) was 0.5 µM.
